Experimental data from patent US20230218710A1, “METHOD OF TREATING CORONAVIRUS INFECTIONS” (priority 2020, published 2023).
Structures can show the parent of a compound that is named as a salt. Square brackets hold non-standard residues; d marks the D form. Peptide text beside a SMILES is read from it. * marks the point of attachment. CH3O(CH2CH2O)11CH2CH2CO = COCCOCCOCCOCCOCCOCCOCCOCCOCCOCCOCCOCCC(=O)*

Key:
Apelin Receptor (APJ) [1] = molecular target: T1, Apelin Receptor (APJ) (Homo sapiens, UniProt P35414); test: Activation of Ras in cultured cells overexpressing APJ; type: cell-based; conditions: 50 μM peptide, 1 min; 100 nM Pyr-Apelin-13 = positive control
T1 construct: host or cells: CHO-K1 AGTRL1 Gi cells
T1 sequence (P35414 1-380): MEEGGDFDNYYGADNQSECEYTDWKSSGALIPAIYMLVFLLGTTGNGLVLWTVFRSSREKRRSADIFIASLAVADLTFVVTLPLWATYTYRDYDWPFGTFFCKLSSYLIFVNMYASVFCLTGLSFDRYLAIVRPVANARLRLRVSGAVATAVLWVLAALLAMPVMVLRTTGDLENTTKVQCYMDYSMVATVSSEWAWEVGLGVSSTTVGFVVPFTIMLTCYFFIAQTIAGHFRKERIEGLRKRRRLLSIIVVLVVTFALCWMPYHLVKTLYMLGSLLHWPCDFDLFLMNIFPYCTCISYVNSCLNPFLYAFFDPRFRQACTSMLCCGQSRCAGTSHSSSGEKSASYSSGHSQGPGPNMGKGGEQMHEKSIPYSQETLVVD
Description: Peptides were initially prepared as 100× stocks in H2O. […] Following a 1 min incubation, the cells were placed on ice, the supernatant was removed, and washed twice with cold HBSS. The HBSS was removed and the cells were immediately lysed in 150 μl/well of lysis buffer included with Active Ras Detection kit (Cell Signaling Technology; Danvers, Mass.); lysis buffer was supplemented with 1 mM PMSF (Millipore-Sigma; Saint Louis, Mo.) and Halt Protease/Phosphatase Inhibitor Cocktail (Thermo-Fisher; Waltham, Mass.) prior to use. The wells were immediately scraped and lysates transferred to microfuge tubes. The samples were then placed on ice for 10 min. […] Visualization and quantification of Ras recovery (GTP-bound/active Ras) in samples were performed with Azure Biosystems C400 Imager and AzureSpot analysis software (Dublin, Calif.). […] Each data point represents the average of duplicate assays.

Apelin Receptor (APJ) [2] = molecular target: T1, Apelin Receptor (APJ); test: Phosphorylation of ERK1/2 in cultured cells overexpressing APJ; type: cell-based; conditions: 5 min, 100 nM Pyr-Apelin-13 = positive control, acetate salts
Description: The effect of the peptides of the current invention on activation of Apelin Receptor (APJ)-mediated signaling can be assessed using an assay to monitor phospho-ERK/phospho-p44/42 MAPK (p-ERK1/2) levels in cultured cells overexpressing Apelin Receptor (APJ) such as CHO-K1, derived from Chinese hamster ovary. Peptides were initially prepared as 100× stocks in H2O. […] Following a 5 min incubation the supernatant was removed and the cells were placed on ice and washed twice with cold HBSS. The HBSS was removed and the cells were immediately lysed in 300 μl/well of 1× lysis buffer (CST 10× Lysis Buffer; Cell Signaling Technology; Danvers, Mass.); lysis buffer was supplemented with 1 mM PMSF (Millipore-Sigma; Saint Louis, Mo.) and Halt Protease/Phosphatase Inhibitor Cocktail (Thermo-Fisher; Waltham, Mass.) prior to use. The samples were then placed on ice for 10 min, wells were scraped and lysates transferred to microfuge tubes. The samples were centrifuged at 12,500 rpm for 10 min at 4° C. and p-ERK1/2 expression in each sample was measured using Phospho-p44/42 MAPK (Thr202/Tyr204) Sandwich ELISA kit according to manufacturer's instructions (Cell Signaling Technology; Danvers, Mass.). Absorbance was measured using a Cytation 3 plate reader at […] (BioTek; Winooski, Vt.). […] Each data point represents the average of duplicate assays.

Apelin Receptor (APJ) [3] = molecular target: T1, Apelin Receptor (APJ); test: Phosphorylation of MEK1 in cultured cells overexpressing APJ; type: cell-based; conditions: 5 min, 100 nM Pyr-Apelin-13 = positive control, acetate salts
Description: Peptides were initially prepared as 100× stocks in H2O. […] Following a 5 min incubation, the supernatant was removed and the cells were placed on ice and washed twice with cold HBSS. The HBSS was removed and the cells were immediately lysed in 300 μl/well of 1× lysis buffer (CST 10× Lysis Buffer; Cell Signaling Technology; Danvers, Mass.); lysis buffer was supplemented with 1 mM PMSF (Millipore-Sigma; Saint Louis, Mo.) and Halt Protease/Phosphatase Inhibitor Cocktail (Thermo-Fisher; Waltham, Mass.) prior to use. The samples were then placed on ice for 10 min, the wells were scraped and lysates were centrifuged at 12,500 rpm for 10 min at 4° C., and p-MEK expression in each sample was measured using Phospho-MEK1 (Ser217/221) Sandwich ELISA kit according to manufacturer's instructions (Cell Signaling Technology; Danvers, Mass.). Absorbance was measured using a Cytation 3 plate reader at […] (BioTek; Winooski, Vt.). […] Each data point represents the average of duplicate assays.

human APJ = human APJ (Homo sapiens, UniProt P35414); test: cell-based; conditions: CHO-K1, 1.5 h, read-out: Percent of Apelin-13 Control Activity
Description: The effect of the peptides on activation of Apelin Receptor (APJ) can be assessed using an assay to monitor β-Arrestin recruitment in cultured cells overexpressing APJ such as CHO-K1, derived from Chinese hamster ovary. β-Arrestin recruitment assays were performed by Eurofins-DiscoverX (Fremont, Calif.) using CHO-K1 AGTRL1 β-Arrestin cell line (co-expressing ProLink tagged human APJ and Enzyme Acceptor tagged β-Arrestin) and PathHunter detection kit. Peptides were initially prepared either as 10 mM stock in DMSO and used at a final concentration of 10 μM (0.1% DMSO). CHO-K1 AGTRL1 β-Arrestin cells were seed onto 384-well plates in standard medium. […] Following 90 min. incubation at 37° C., β-Arrestin recruitment in response to various treatments was quantified using a chemiluminescent complementation reporter assay to measure association of tagged human APJ (ProLink tag) and tagged β-Arrestin (Enzyme Acceptor tag).

Apelin Receptor (APJ) [4] = molecular target: T1, Apelin Receptor (APJ); test: cell-based; conditions: CHO-K1, 0.5 h, read-out: Percent of Pyr-Apelin-13 Control Activity
Description: Peptides were initially prepared as 30 mM stock in DMSO and diluted to 3 mM in H2O or directly as 3 mM stock in H2O; used at a final concentration of 10 μM (0-0.1% DMSO).

in vitro = conditions: human, pooled human plasma
Description: The metabolic stability of the peptides can be assessed in vitro by incubation in plasma and determination of the amount of peptide remaining over time. Peptides (50 μM) were incubated in pooled plasma from mice, monkeys, and humans at 37° C. Samples were removed at intervals up to 3 hours and immediately analyzed for the concentration of intact peptide by LC/MS/MS. The percent of peptide remaining in plasma at each time point was calculated relative to the initial peak area.

Chain of human APJ (P32121 whole entry partner, one chain of several): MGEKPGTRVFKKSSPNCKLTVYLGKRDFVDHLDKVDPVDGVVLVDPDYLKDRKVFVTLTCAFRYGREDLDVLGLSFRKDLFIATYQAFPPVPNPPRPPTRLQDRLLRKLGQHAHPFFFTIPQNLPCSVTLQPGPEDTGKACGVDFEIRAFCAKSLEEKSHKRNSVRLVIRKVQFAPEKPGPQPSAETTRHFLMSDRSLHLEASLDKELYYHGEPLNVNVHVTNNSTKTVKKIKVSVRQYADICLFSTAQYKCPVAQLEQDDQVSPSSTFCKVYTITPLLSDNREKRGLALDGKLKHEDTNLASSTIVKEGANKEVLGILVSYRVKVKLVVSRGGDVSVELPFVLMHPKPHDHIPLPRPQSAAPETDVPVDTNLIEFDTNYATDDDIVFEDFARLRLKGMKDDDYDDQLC

Row | Molecule | Emax at 10 µM (human APJ) | Emax at 10 µM (Apelin Receptor (APJ) [4]) | remaining at 0.5 h, 50 μM (in vitro) | further results
1 | CSCC[C@H](NC(=O)CNC(=O)[C@H](CCSC)NC(=O)[C@H](CCSC)NC(=O)[C@H](CCCNC(=N)N)NC(=O)[C@@H](N)CCCNC(=N)N)C(=O)N[C@H](C(=O)N[C@@H](Cc1ccccc1)C(=O)N[C@@H](CCC(N)=O)C(=O)N[C@@H](CO)C(=O)N[C@@H](CC(C)C)C(=O)N[C@@H](CS)C(=O)NCC(=O)N[C@H](C)C(=O)O)C(C)C [SEQ ID NO: 15 Acetate salt] |  |  |  | GTP-Ras (% of Positive Control) (Apelin Receptor (APJ) [1]): 64.9%
2 | CSCC[C@H](NC(=O)CNC(=O)[C@H](CCSC)NC(=O)[C@H](CCSC)NC(=O)[C@H](CCCNC(=N)N)NC(=O)[C@@H](N)CCCNC(=N)N)C(=O)N[C@H](C(=O)N[C@@H](Cc1ccccc1)C(=O)N[C@@H](CCC(N)=O)C(=O)N[C@@H](CO)C(=O)N[C@@H](CC(C)C)C(=O)N[C@@H](CS)C(=O)NCC(=O)N[C@H](C)C(=O)O)C(C)C [SEQ ID NO: 15 HCl salt] |  |  |  | GTP-Ras (% of Positive Control) (Apelin Receptor (APJ) [1]): 90.8%
3 | CSCC[C@H](NC(=O)CNC(=O)[C@H](CCSC)NC(=O)[C@H](CCSC)NC(=O)[C@H](CCCNC(=N)N)NC(=O)[C@@H](N)CCCNC(=N)N)C(=O)N[C@H](C(=O)N[C@@H](Cc1ccccc1)C(=O)N[C@@H](CCC(N)=O)C(=O)N[C@@H](CO)C(=O)N[C@@H](CC(C)C)C(=O)N[C@@H](CS)C(=O)NCC(=O)N[C@H](C)C(=O)O)C(C)C [SEQ ID NO: 15] |  |  |  | pERK1/2 (% of Positive Control) (Apelin Receptor (APJ) [2]; 0.4 μM peptide): 1.9%; pERK1/2 (% of Positive Control) (Apelin Receptor (APJ) [2]; 2.0 μM peptide): 15.4%; pERK1/2 (% of Positive Control) (Apelin Receptor (APJ) [2]; 10 μM peptide): 44.4%; pERK1/2 (% of Positive Control) (Apelin Receptor (APJ) [2]; 50 μM peptide): 69.7%; pMEK1 (% of Positive Control) (Apelin Receptor (APJ) [3]; 2.0 μM peptide): 2.5%; pMEK1 (% of Positive Control) (Apelin Receptor (APJ) [3]; 10 μM peptide): 14.3%; pMEK1 (% of Positive Control) (Apelin Receptor (APJ) [3]; 50 μM peptide): 52.7%
4 | CSCC[C@H](NC(=O)CNC(=O)[C@H](CCSC)NC(=O)[C@H](CCSC)NC(=O)[C@H](CCCNC(=N)N)NC(=O)[C@@H](N)CCCNC(=N)N)C(=O)N[C@H](C(=O)N[C@@H](C)C(=O)N[C@@H](CCC(N)=O)C(=O)N[C@@H](CS)C(=O)N[C@@H](CC(C)C)C(=O)N[C@@H](CS)C(=O)NCC(=O)N[C@H](C)C(=O)O)C(C)C [compound 11] | 0% | 49% | 97.9% | 
5 | CSCC[C@H](NC(=O)CNC(=O)[C@H](CCSC)NC(=O)[C@H](CCSC)NC(=O)[C@H](CCCNC(=N)N)NC(=O)[C@@H](N)CCCNC(=N)N)C(=O)N[C@H](C(=O)N[C@@H](Cc1ccccc1)C(=O)N[C@@H](CCC(N)=O)C(=O)N[C@@H](CO)C(=O)N[C@@H](CC(C)C)C(=O)N[C@@H](CS)C(=O)NCC(=O)N[C@H](C)C(=O)O)C(C)C [compound 15] | 40% | 105% | 24.3% | 
6 | COCCOCCOCCOCCOCCOCCOCCOCCOCCOCCOCCOCCC(=O)N[C@@H](CCCCN)C(=O)N[C@@H](CCCNC(=N)N)C(=O)N[C@@H](CCCNC(=N)N)C(=O)N[C@@H](CCSC)C(=O)N[C@@H](CCSC)C(=O)NCC(=O)N[C@@H](CCSC)C(=O)N[C@H](C(=O)N[C@@H](Cc1ccccc1)C(=O)N[C@@H](CCC(N)=O)C(=O)N[C@@H](CS)C(=O)N[C@@H](CC(C)C)C(=O)N[C@@H](CS)C(=O)NCC(=O)N[C@H](C)C(=O)O)C(C)C [compound 20] | 1% | 37% | 75.3% | 
7 | COCCOCCOCCOCCOCCOCCOCCOCCOCCOCCOCCOCCC(=O)NCCCC[C@H](NC(=O)[C@@H](C)NC(=O)CNC(=O)[C@H](CS)NC(=O)[C@H](CC(C)C)NC(=O)[C@H](CS)NC(=O)[C@H](CCC(N)=O)NC(=O)[C@H](Cc1ccccc1)NC(=O)[C@@H](NC(=O)[C@H](CCSC)NC(=O)CNC(=O)[C@H](CCSC)NC(=O)[C@H](CCSC)NC(=O)[C@H](CCCNC(=N)N)NC(=O)[C@@H](N)CCCNC(=N)N)C(C)C)C(=O)O [compound 21] | 1% | 34% | 29.5% | 
8 | CSCC[C@H](NC(=O)CNC(=O)[C@H](CCSC)NC(=O)[C@H](CCSC)NC(=O)[C@H](CCCNC(=N)N)NC(=O)[C@@H](N)CCCNC(=N)N)C(=O)N[C@H](C(=O)N[C@@H](C)C(=O)N[C@@H](CCC(N)=O)C(=O)N[C@@H](CS)C(=O)N[C@@H](CC(C)C)C(=O)N[C@@H](CCC(=O)O)C(=O)NCC(=O)N[C@H](C)C(=O)O)C(C)C [compound 30] (H-RRMMGMVAQCLEG[dA]-OH; N-terminus and C-terminus assumed) | -1% | 31% | 14.9% | 
9 | CSCC[C@H](NC(=O)[C@H](CCCNC(=N)N)NC(=O)[C@@H](N)CCCNC(=N)N)C(=O)N[C@@H](CCC(=O)O)C(=O)N[C@H](C(=O)N[C@@H](Cc1ccc(O)cc1)C(=O)N[C@@H](CCC(N)=O)C(=O)N[C@@H](CS)C(=O)N[C@@H](CC(C)C)C(=O)N[C@@H](CS)C(=O)NCC(=O)N[C@H](C)C(=O)O)C(C)C [compound 31] (H-RRMEVYQCLCG[dA]-OH; N-terminus and C-terminus assumed) | 0% | 2% | 100% | 
10 | CC[C@H](C)[C@H](NC(=O)CNC(=O)[C@@H](NC(=O)[C@@H](NC(=O)[C@H](CCCNC(=N)N)NC(=O)[C@H](CCCNC(=N)N)NC(=O)[C@H](CCCCN)NC(=O)CCOCCOCCOCCOCCOCCOCCOCCOCCOCCOCCOCCOC)[C@@H](C)CC)[C@@H](C)CC)C(=O)N[C@H](C(=O)N[C@@H](Cc1ccccc1)C(=O)N[C@@H](CCC(N)=O)C(=O)N[C@@H](CS)C(=O)N[C@@H](CC(C)C)C(=O)N[C@@H](CS)C(=O)NCC(=O)N[C@H](C)C(=O)O)C(C)C [compound 42] ({CH3O(CH2CH2O)11CH2CH2CO}-KRRIIGIVFQCLCG[dA]-OH; N-terminus and C-terminus assumed) | 8% | 33% |  | 
11 | (PEG12)KRRLLGLVFQSLCG(dA) [SEQ ID NO: 37 Acetate salt] (KRRLLGLVFQSLCGA; N-terminal PEG12, C-terminal D-Ala, acetate salt; (1)..(1) PEG12; (15)..(15) D-Ala) |  |  |  | GTP-Ras (% of Positive Control) (Apelin Receptor (APJ) [1]): 79.2%
